According to patent US20240285670A1, “THERAPEUTIC TREATMENT OF TUMORS BY BLOCKING THE HEME SYNTHESIS-EXPORT AXIS” (Università degli Studi di Torino, priority 2021, published 2024):

System: ALAS1
Assay: qRT-PCR analysis of ALAS1 expression in C80 cells
Assay type: cell-based, human
Details: FLVCR1a-silenced vs scramble shRNA C80 cells
Procedure: (A) Heme content in Caco2 cells treated with 5 mM 5-ALA (black bars and white bars) or with 5 mM 5-ALA+0.5 mM SA (light grey outlined bars) for the indicated time points. […] Values are expressed as relative fluorescence intensity. Data represent mean±SEM, n=2. For statistical analyses, a two-way analysis of variance was used, followed by the Bonferroni correction for multiple group comparisons; **=p<0.01, ***=p<0.001. 5-ALA, 5-aminolevulinic acid; SA, succinylacetone. (B) Intracellular 5-ALA levels. […] Values are expressed as peak area/μg proteins. Data represent mean±SEM of n=4 wells pooled from two independent experiments. For statistical analyses, an unpaired Student's t-test was used; **=p<0.01. 5-ALA, 5-aminolevulinic acid. (C, D) Accumulation of ^13C2-5-ALA in cells incubated with U-^13C-glucose (C) or of ^13C3-5-ALA in cells incubated with U-^13C-glutamine (D) for the indicated time. […] Values are expressed as peak area/μg proteins. […] Transcript abundance, normalized to beta-actin mRNA expression, is expressed as a fold increase over a calibrator sample. […] Band intensities were measured by densitometry and normalized to vinculin expression. […]
RNA extraction and quantitative real-time PCR analyses were performed as described previously (Destefanis et al., 2019). […] Quantitative real-time PCR (qRT-PCR) was performed using the Universal Probe Library system (Roche, Basel, CH). […]

Substance: FLVCR1a shRNA: shRNA specifically down-regulating FLVCR1a without targeting FLVCR1b; pLKO.1 lentiviral clone TRCN0000059599, antisense SEQ ID No.: 2 (antisense TTGCTAATGATGCTGTACTGG; sense CCAGTACAGCATCATTAGCAA)
- ALAS1 expression (qRT-PCR): reduced ALAS1 expression
